According to US20060069132A1, “Azolecarboxamide herbicides” (priority 2004, published 2006):

How the values were obtained:
blackgrass = assay: Test B postemergence herbicide test; type: in vivo, Alopecurus myosuroides; details: postemergence
How it was run: (§1)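 Scale 0–100: zero equals no visible effect, 100 complete control, judged by eye relative to controls. Timing: 13 to 15 days in greenhouse post-treatment. Growth stage at spraying: two leaves (paddy) or one to four leaves, 2–18 cm (postemergence).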

barnyardgrass = assay: Test B pre-/postemergence herbicide test; type: in vivo, Echinochloa crus-galli; details: for Barnyardgrass plant response rating (0 to 100 scale) / Plant response rating, Barnyardgrass: 0 = no effect, 100 = complete control, preemergence; for Barnyardgrass plant response rating: postemergence
How it was run: (§2)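 Formulation: non-phytotoxic solvent mix with surfactant. Timing: preemergence on seed and postemergence on 2–18 cm plants, applied concurrently. Readout after 13–15 d greenhouse: visual 0–100 control rating against controls.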

giant foxtail = assay: Test B pre-/postemergence herbicide test; type: in vivo, Setaria faberi; details: for Foxtail, Giant plant response rating (0 to 100 scale) / Plant response rating, Foxtail, Giant: 0 = no effect, 100 = complete control, preemergence; for Foxtail, Giant plant response rating: postemergence
How it was run: (§3)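 Greenhouse pot assay with simultaneous preemergence (treated seed) and postemergence (2–18 cm seedlings) applications of surfactant-containing, non-phytotoxic solvent formulations. Response scored visually 13–15 days later on a 0–100 scale, 100 meaning complete control.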

wheat = assay: Test B postemergence herbicide test; type: in vivo, Triticum aestivum; design: key to Wheat plant response rating: 0 = no effect, 100 = complete control; details: postemergence
How it was run: (§4)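 Read-out: visual comparison with controls, scored 0 to 100, where 100 means complete control and 0 no effect. Formulated chemicals were applied postemergence to plants 2–18 cm tall (1- to 4-leaf), or to flooded-paddy plants at the 2-leaf stage, then held 13 to 15 days under glass.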

morningglory = assay: Test B pre-/postemergence herbicide test; type: in vivo, Ipomoea coccinea; details: for Morningglory plant response rating (0 to 100 scale) / Plant response rating, Morningglory: 0 = no effect, 100 = complete control, preemergence; for Morningglory plant response rating: postemergence
How it was run: as §2

wild oat = assay: Test B postemergence herbicide test; type: in vivo, Avena fatua; details: postemergence
How it was run: as §4

Surinam grass = assay: Test B pre-/postemergence herbicide test; type: in vivo, Urochloa decumbens; details: for Surinam Grass plant response rating (0 to 100 scale) / Plant response rating, Surinam Grass: 0 = no effect, 100 = complete control, preemergence; for Surinam Grass plant response rating: postemergence
How it was run: as §3

large crabgrass = assay: Test B pre-/postemergence herbicide test; type: in vivo, Digitaria sanguinalis; details: for Crabgrass, Large plant response rating (0 to 100 scale) / Plant response rating, Crabgrass, Large: 0 = no effect, 100 = complete control, preemergence; for Crabgrass, Large plant response rating: postemergence
How it was run: as §3

velvetleaf = assay: Test B pre-/postemergence herbicide test; type: in vivo, Abutilon theophrasti; details: for Velvetleaf plant response rating (0 to 100 scale) / Plant response rating, Velvetleaf: 0 = no effect, 100 = complete control, preemergence; for Velvetleaf plant response rating: postemergence
How it was run: as §3

pigweed = assay: Test B pre-/postemergence herbicide test; type: in vivo, Amaranthus retroflexus; details: for Pigweed plant response rating (0 to 100 scale) / Plant response rating, Pigweed: 0 = no effect, 100 = complete control, preemergence; for Pigweed plant response rating: postemergence
How it was run: as §3

corn = assay: Test B pre-/postemergence herbicide test; type: in vivo, Zea mays; details: for Corn plant response rating (0 to 100 scale) / Plant response rating, Corn: 0 = no effect, 100 = complete control, preemergence; for Corn plant response rating: postemergence
How it was run: as §3

lambsquarters = assay: Test B pre-/postemergence herbicide test; type: in vivo, Chenopodium album; details: for Lambsquarters plant response rating (0 to 100 scale) / Plant response rating, Lambsquarters: 0 = no effect, 100 = complete control, preemergence; for Lambsquarters plant response rating: postemergence
How it was run: as §3

cocklebur = assay: Test B pre-/postemergence herbicide test; type: in vivo, Xanthium strumarium; details: for Cocklebur plant response rating (0 to 100 scale) / Plant response rating, Cocklebur: 0 = no effect, 100 = complete control, preemergence; for Cocklebur plant response rating: postemergence
How it was run: as §2

[1] = tested on: small flower umbrella sedge; assay: Test B flooded paddy test; type: in vivo, Cyperus difformis; details: 1000 g ai/ha, scale 0 to 100 (0 no effect, 100 complete control)
How it was run: as §1

[2] = 125 g ai/ha, visual rating, scale 0 (no effect) to 100 (complete control)
[3] = 500 g ai/ha, scale 0 to 100, 0 is no effect, 100 is complete control

CCNC(=O)c1ccc(F)c(NC(=O)c2cc(C(C)(C)C)nn2CC)n1 [Compound 278]
20: Blackgrass plant response rating (blackgrass; [2]) | Foxtail, Giant plant response rating (0 to 100 scale) (giant foxtail; 125 g ai/ha) | Morningglory plant response rating (morningglory; [3]) | Oat, Wild plant response rating (wild oat; [2]) | Surinam Grass plant response rating (0 to 100 scale) (Surinam grass; 125 g ai/ha) | Crabgrass, Large plant response rating (0 to 100 scale) (large crabgrass; 125 g ai/ha) | Plant response rating, Corn (corn; 500 g ai/ha, visual rating) | Corn plant response rating (corn; [3]) | Lambsquarters plant response rating (lambsquarters; [2])
80: Plant response rating, Barnyardgrass (barnyardgrass; 500 g ai/ha, visual rating) | Plant response rating, Foxtail, Giant (giant foxtail; 500 g ai/ha, visual rating) | Plant response rating, Crabgrass, Large (large crabgrass; 500 g ai/ha, visual rating)
30: Blackgrass plant response rating (blackgrass; [3]) | Barnyardgrass plant response rating (0 to 100 scale) (barnyardgrass; 125 g ai/ha) | Wheat plant response rating (wheat; [2]) | Wheat plant response rating (wheat; [3]) | Oat, Wild plant response rating (wild oat; [3]) | Lambsquarters plant response rating (lambsquarters; [3]) | Cocklebur plant response rating (cocklebur; [3])
60: Plant response rating, Surinam Grass (Surinam grass; 500 g ai/ha, visual rating) | Plant response rating, Velvetleaf (velvetleaf; 500 g ai/ha, visual rating)
10: Barnyardgrass plant response rating (barnyardgrass; [3]) | Foxtail, Giant plant response rating (giant foxtail; [3]) | Plant response rating, Morningglory (morningglory; 500 g ai/ha, visual rating) | Surinam Grass plant response rating (Surinam grass; [2]) | Surinam Grass plant response rating (Surinam grass; [3]) | Crabgrass, Large plant response rating (large crabgrass; [3]) | Velvetleaf plant response rating (velvetleaf; [2]) | Velvetleaf plant response rating (velvetleaf; [3]) | Pigweed plant response rating (pigweed; [2]) | Corn plant response rating (corn; [2]) | Cocklebur plant response rating (cocklebur; [2])
70: Sedge, Umbrella plant response rating [1]
0: Barnyardgrass plant response rating (barnyardgrass; [2]) | Foxtail, Giant plant response rating (giant foxtail; [2]) | Morningglory plant response rating (0 to 100 scale) (morningglory; 125 g ai/ha) | Morningglory plant response rating (morningglory; [2]) | Crabgrass, Large plant response rating (large crabgrass; [2]) | Velvetleaf plant response rating (0 to 100 scale) (velvetleaf; 125 g ai/ha) | Corn plant response rating (0 to 100 scale) (corn; 125 g ai/ha) | Cocklebur plant response rating (0 to 100 scale) (cocklebur; 125 g ai/ha) | Plant response rating, Cocklebur (cocklebur; 500 g ai/ha, visual rating)
40: Pigweed plant response rating (pigweed; [3])
100: Pigweed plant response rating (0 to 100 scale) (pigweed; 125 g ai/ha) | Plant response rating, Pigweed (pigweed; 500 g ai/ha, visual rating) | Lambsquarters plant response rating (0 to 100 scale) (lambsquarters; 125 g ai/ha) | Plant response rating, Lambsquarters (lambsquarters; 500 g ai/ha, visual rating)

CCn1nc(C(C)(C)C)cc1C(=O)Nc1nc(C(=O)N2CC=CC2)ccc1F [Compound 281]
10: Foxtail, Giant plant response rating (0 to 100 scale) (giant foxtail; 125 g ai/ha) | Foxtail, Giant plant response rating (giant foxtail; [2]) | Foxtail, Giant plant response rating (giant foxtail; [3]) | Morningglory plant response rating (morningglory; [3]) | Oat, Wild plant response rating (wild oat; [2]) | Surinam Grass plant response rating (0 to 100 scale) (Surinam grass; 125 g ai/ha) | Surinam Grass plant response rating (Surinam grass; [2]) | Crabgrass, Large plant response rating (0 to 100 scale) (large crabgrass; 125 g ai/ha) | Crabgrass, Large plant response rating (large crabgrass; [2]) | Crabgrass, Large plant response rating (large crabgrass; [3]) | Velvetleaf plant response rating (0 to 100 scale) (velvetleaf; 125 g ai/ha) | Corn plant response rating (corn; [3])
0: Barnyardgrass plant response rating (barnyardgrass; [2]) | Barnyardgrass plant response rating (barnyardgrass; [3]) | Morningglory plant response rating (0 to 100 scale) (morningglory; 125 g ai/ha) | Morningglory plant response rating (morningglory; [2]) | Velvetleaf plant response rating (velvetleaf; [2]) | Corn plant response rating (0 to 100 scale) (corn; 125 g ai/ha) | Plant response rating, Corn (corn; 500 g ai/ha, visual rating) | Corn plant response rating (corn; [2]) | Cocklebur plant response rating (0 to 100 scale) (cocklebur; 125 g ai/ha) | Plant response rating, Cocklebur (cocklebur; 500 g ai/ha, visual rating)
30: Blackgrass plant response rating (blackgrass; [3]) | Wheat plant response rating (wheat; [2]) | Wheat plant response rating (wheat; [3]) | Pigweed plant response rating (pigweed; [3]) | Lambsquarters plant response rating (lambsquarters; [3])
90: Plant response rating, Barnyardgrass (barnyardgrass; 500 g ai/ha, visual rating) | Lambsquarters plant response rating (0 to 100 scale) (lambsquarters; 125 g ai/ha)
70: Plant response rating, Crabgrass, Large (large crabgrass; 500 g ai/ha, visual rating) | Plant response rating, Velvetleaf (velvetleaf; 500 g ai/ha, visual rating) | Sedge, Umbrella plant response rating [1]
60: Plant response rating, Foxtail, Giant (giant foxtail; 500 g ai/ha, visual rating)
40: Plant response rating, Surinam Grass (Surinam grass; 500 g ai/ha, visual rating)
100: Pigweed plant response rating (0 to 100 scale) (pigweed; 125 g ai/ha) | Plant response rating, Pigweed (pigweed; 500 g ai/ha, visual rating) | Plant response rating, Lambsquarters (lambsquarters; 500 g ai/ha, visual rating)
20: Blackgrass plant response rating (blackgrass; [2]) | Barnyardgrass plant response rating (0 to 100 scale) (barnyardgrass; 125 g ai/ha) | Plant response rating, Morningglory (morningglory; 500 g ai/ha, visual rating) | Oat, Wild plant response rating (wild oat; [3]) | Surinam Grass plant response rating (Surinam grass; [3]) | Velvetleaf plant response rating (velvetleaf; [3]) | Pigweed plant response rating (pigweed; [2]) | Lambsquarters plant response rating (lambsquarters; [2]) | Cocklebur plant response rating (cocklebur; [2]) | Cocklebur plant response rating (cocklebur; [3])

C#CCNC(=O)c1cc(NC(=O)c2cc(C(C)(C)C)nn2CC)ccn1 [Compound 283]
30: Morningglory plant response rating (morningglory; [3]) | Lambsquarters plant response rating (lambsquarters; [3])
20: Blackgrass plant response rating (blackgrass; [2]) | Wheat plant response rating (wheat; [2]) | Wheat plant response rating (wheat; [3]) | Pigweed plant response rating (pigweed; [3])
50: Plant response rating, Crabgrass, Large (large crabgrass; 500 g ai/ha, visual rating)
80: Sedge, Umbrella plant response rating [1]
100: Plant response rating, Pigweed (pigweed; 500 g ai/ha, visual rating) | Plant response rating, Lambsquarters (lambsquarters; 500 g ai/ha, visual rating)
10: Plant response rating, Barnyardgrass (barnyardgrass; 500 g ai/ha, visual rating) | Plant response rating, Foxtail, Giant (giant foxtail; 500 g ai/ha, visual rating) | Oat, Wild plant response rating (wild oat; [3]) | Surinam Grass plant response rating (Surinam grass; [3]) | Crabgrass, Large plant response rating (large crabgrass; [3]) | Corn plant response rating (corn; [3])
40: Blackgrass plant response rating (blackgrass; [3])
0: Barnyardgrass plant response rating (0 to 100 scale) (barnyardgrass; 125 g ai/ha) | Barnyardgrass plant response rating (barnyardgrass; [2]) | Barnyardgrass plant response rating (barnyardgrass; [3]) | Foxtail, Giant plant response rating (0 to 100 scale) (giant foxtail; 125 g ai/ha) | Foxtail, Giant plant response rating (giant foxtail; [2]) | Foxtail, Giant plant response rating (giant foxtail; [3]) | Morningglory plant response rating (0 to 100 scale) (morningglory; 125 g ai/ha) | Plant response rating, Morningglory (morningglory; 500 g ai/ha, visual rating) | Morningglory plant response rating (morningglory; [2]) | Oat, Wild plant response rating (wild oat; [2]) | Surinam Grass plant response rating (0 to 100 scale) (Surinam grass; 125 g ai/ha) | Plant response rating, Surinam Grass (Surinam grass; 500 g ai/ha, visual rating) | Surinam Grass plant response rating (Surinam grass; [2]) | Crabgrass, Large plant response rating (0 to 100 scale) (large crabgrass; 125 g ai/ha) | Crabgrass, Large plant response rating (large crabgrass; [2]) | Velvetleaf plant response rating (0 to 100 scale) (velvetleaf; 125 g ai/ha) | Plant response rating, Velvetleaf (velvetleaf; 500 g ai/ha, visual rating) | Velvetleaf plant response rating (velvetleaf; [2]) | Velvetleaf plant response rating (velvetleaf; [3]) | Pigweed plant response rating (0 to 100 scale) (pigweed; 125 g ai/ha) | Pigweed plant response rating (pigweed; [2]) | Plant response rating, Corn (corn; 500 g ai/ha, visual rating) | Corn plant response rating (corn; [2]) | Lambsquarters plant response rating (0 to 100 scale) (lambsquarters; 125 g ai/ha) | Lambsquarters plant response rating (lambsquarters; [2]) | Cocklebur plant response rating (0 to 100 scale) (cocklebur; 125 g ai/ha) | Plant response rating, Cocklebur (cocklebur; 500 g ai/ha, visual rating) | Cocklebur plant response rating (cocklebur; [2]) | Cocklebur plant response rating (cocklebur; [3])
